The values below come from PubChem BioAssay (NCI).

SMILES strings stand for the structures.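 Tested at 5 concentrations; 48 h exposure; 96-well plates; endpoints linearly interpolated, else capped at highest concentration. The concentration for 50% growth inhibition is given as GI50. TGI is the concentration that stops growth completely.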

Holding throughout (test): NCI tumour cell line growth inhibition, 48 h
Assay [1] deals with EKVX NSCLC.
The subject of assay [2] is HCT-116 colon.
Assay [3] deals with HCT-15 colon.
Assay [4] deals with HT29 colon.
For assay [5], the system named is KM12 colon.
The subject of assay [6] is NCI-H23 lung.
Assay [7] concerns NCI-H460 lung.
Assay [8] relates to OVCAR-4 ovarian.
Assay [9] deals with OVCAR-5 ovarian.
Assay [10] deals with SF-268 CNS.
Assay [11] relates to U251 CNS.

Take `CCCOC(=O)CNC(=O)OC(C)(C)C`: the TGI in [1], in [2], in [3], in [4], in assay [5] and in [6] was over 100 µM throughout. The TGI in assay [7], in assay [8], in assay [9], in assay [10] and in assay [11] was over 100 µM each time.
For the compound `CCc1nc(N)nc(N)c1-c1ccc([N+](C)(C)C)cc1`, the TGI in assay [1], in [2], in [3], in assay [4], in assay [5] and in assay [6] was over 100 µM each time. The TGI in assay [7], in assay [8], in assay [9], in [10] and in assay [11] was over 100 µM throughout.
With `Nc1ccccc1N=Cc1cc2cc([N+](=O)[O-])ccc2s1`, the TGI is 45.1 µM in assay [1]; over 100 µM in assay [2]; over 100 µM in assay [3]; over 100 µM in assay [4]; over 100 µM in assay [5]; over 100 µM in assay [6]. Besides, the TGI in assay [7] was 47.5 µM; in assay [9], over 100 µM; in assay [10], 35.6 µM; in assay [11], 28.2 µM.
In the case of `COC(C)(C)OCCN1CCN(CCN2C3=C(C=C(C(C)=O)C3)Sc3ccccc32)CC1`, the TGI is over 100 µM in assay [1]; 33.6 µM in [2]; 40.9 µM in assay [3]; 33.2 µM in assay [4]; 32.6 µM in [5]; 73.5 µM in [6]. Moreover, the TGI was 35.5 µM in [7]; over 100 µM in assay [8]; 59.1 µM in assay [9]; 43.2 µM in assay [10]; 35.2 µM in [11].
`CN(C)CCNC(=O)c1cccc2ccc(-c3ccc(F)cc3)nc12`: the TGI in assay [2] turned out to be 13.3 µM; in assay [3], 16.1 µM; in [4] it was 17 µM; in assay [5], 33.4 µM; in assay [6], 17.1 µM; in assay [7], 10.5 µM. For the same compound, the TGI in [8] was determined as 18.3 µM; in [9] it was 25.6 µM; in [10] it was 22.2 µM; in [11] it was 22.3 µM.
Regarding `COc1cc(C2CC(c3cccc(Nc4ccncc4)c3)=NN2c2ccc(Cl)cc2)cc(OC)c1OC` (stereo not given), the GI50 was 1.46 µM in [1]; 1.7 µM in assay [3]; 1.87 µM in assay [4]; 1.67 µM in assay [5]; 1.67 µM in assay [6]; 1.69 µM in assay [7]. Also, the results for the GI50 in assay [8], in assay [9] and in [10] were 1.62 µM, 1.66 µM and 1.58 µM, respectively. In addition, the TGI in assay [1] is 2.88 µM; in assay [3], 3.28 µM; in assay [4], 4.82 µM; in assay [5], 3.31 µM; in assay [6], 3.28 µM; in assay [7], 3.13 µM. The figures for the TGI in assay [8], in assay [9] and in assay [10] were 3.08 µM, 3.13 µM and 3.06 µM, respectively.
For the compound `CN(C)CCCn1cnc2cc(Cl)c(Cl)cc21`, the TGI in assay [1], in [2], in [3], in assay [4], in [5] and in assay [6] was over 100 µM throughout. Moreover, the TGI in [7], in assay [8], in [9], in assay [10] and in assay [11] was over 100 µM each time.
Turning to `O=P1(c2ccccc2)Nc2ccccc2SSc2ccccc2N1`, the TGI came out at 33.4 µM in assay [1]; 31.4 µM in assay [2]; 35.8 µM in assay [3]; 37.1 µM in assay [4]; 30.4 µM in assay [5]; 32.7 µM in assay [6]. In addition, the TGI is 33.8 µM in assay [7]; 33.6 µM in assay [8]; 36.1 µM in [9]; 34 µM in assay [10]; 30.4 µM in [11].
Regarding `Cc1cc(/N=C/c2ccc(F)cc2)n(-c2ccccc2)n1`, the TGI in [1], in assay [2], in [3], in assay [4], in assay [5] and in assay [6] was over 100 µM throughout. The TGI in [7], in [8], in assay [9], in [10] and in [11] was over 100 µM throughout.
Take `Cc1cc2c(cc1C(=O)c1ccc(N)cc1)OCO2`: the TGI in assay [1] is over 100 µM; in assay [2], over 100 µM; in [3], over 100 µM; in assay [4] it was 61.3 µM; in assay [5], over 100 µM; in [6], over 100 µM. Besides, the TGI in [7], in assay [9], in assay [10] and in assay [11] was over 100 µM in each case.
`O=C(Nc1ccc([N+](=O)[O-])cc1[N+](=O)[O-])C(=O)C(C(=O)c1ccc2ccccc2c1)C1OC(=O)c2ccccc21` (stereo not given): the TGI in assay [1] was found to be 48 µM; in [2], 32 µM; in assay [3] it was 30.7 µM; in [4] it was 36.4 µM; in assay [5], 40.3 µM; in [6], 26 µM. The TGI in [7] was determined as 28.9 µM; in assay [8], 60.3 µM; in [9], 58.2 µM; in assay [10] it was 43.1 µM; in assay [11] it was 16.9 µM.
For the compound `FC(F)(F)c1ccc2c(c1)nc(-c1ccc(Cl)cc1)n2CC1CCCN2CCCCC12` (stereo not given), the TGI amounted to 23.4 µM in [1]; 27.4 µM in assay [2]; 28.8 µM in assay [3]; 19 µM in assay [4]; 41.8 µM in assay [5]; 31.4 µM in [7]. For the same compound, the TGI worked out at 35.6 µM in assay [8], 21.4 µM in assay [9], 27.5 µM in [10] and 27.3 µM in assay [11].
